Like-named read-outs stand apart in the source and are kept apart here. Some results are limits rather than exact numbers.

Data set [1] relates to CYP enzymes that metabolise ribociclib in HLM (total metabolism; CYP-selective chemical inhibitors). Nature of the data set: Inhibition of [3H] ribociclib total metabolism in HLM by CYP- and FMO-selective inhibitors. The data set is classed as in vitro ADME. The settings on record: both, human, human liver microsomes, pH 7.4, probe [3H] ribociclib.
The subject of a further data set is CYP2C9. As to conditions: cited from earlier work.
Another data set has as its system CYP2D6. As to conditions: ref literature search, read-out: Reported Ki or IC50 values, median (and range); cited from earlier work.
The nature of data set [2]: Rat ADME study: excretion, mass balance, metabolite profiling with radiolabeled ribociclib. The data set is classed as in vivo. As to conditions: rat. As for the experimental part: (§1) ADME studies (including QWBA in pigmented and non‐pigmented rats) using radiolabeled ribociclib were conducted in rat and dog. Relevant institutional and national guides for the care and use of laboratory animals were followed.
(§2) Metabolite profiling was conducted on plasma, urine, bile, and feces samples in the rat and dog ADME studies, and further metabolite profiling on plasma and milk was conducted in a dedicated rat milk excretion study.
(§3) Plasma samples obtained from these studies were extracted with equal volumes of acetonitrile. Additional extractions of the protein pellet with acetonitrile and/or acetone were conducted as needed to maximize radioactivity recovery. Feces samples were initially extracted with two to four volumes of acetonitrile. Additional extractions of the pellet following centrifugation and removal of supernatant were conducted with acetonitrile and/or acetone as needed to maximize radioactivity recovery. Urine and bile samples were analyzed directly following centrifugation. Radioactivity recoveries following the centrifugation step were measured by LSC. Milk samples were extracted with two volumes of acetonitrile, following centrifugation and removal of supernatant, the pellets were re‐suspended in 100 µL of water and re‐extracted with 200 µL acetonitrile.
(§4) Metabolite profiling in the ADME studies was conducted using liquid chromatography‐mass spectrometry. Radioactivity profiles were generated by diversion of the majority of the post‐column flow into 96‐well yttrium silicate scintillation‐coated plates (Deepwell Lumaplates; Perkin Elmer Life and Analytical Sciences Inc), by means of Gilson FC204 fraction collectors (Gilson). Metabolites were identified by mass spectrometry (Waters QTOF operating under MassLynx 4.1) and, where feasible, by comparison with authentic reference standards.

Data set [3] is described as follows: Dog ADME study: excretion, mass balance, metabolite profiling with radiolabeled ribociclib. The data set is classed as in vivo. As for the experimental part: as §1, §2, §3, §4
Data set [4] can be described thus: Human ADME study: PK of ribociclib and LEQ803 in plasma and urine (validated bioanalytical assay). The data set is classed as in vivo. As to conditions: human plasma, bioanalytical assay, single oral 600 mg, N=6; for AUC(0-inf) / AUC(0-t) / Cmax / half-life: human, plasma, po, 600 mg. As for the experimental part:
Subjects continued to fast for 4 hours after drug administration.
Plasma aliquots at each time point were subjected to protein precipitation with three volumes of acetonitrile containing 0.1% (v:v) formic acid, followed by dilution and analysis by liquid chromatography‐tandem mass spectrometry in selected reaction monitor‐positive ion mode using heated electrospray ionization as the ionization technique. For urine aliquots, six volumes of acetonitrile containing 0.1% (v:v) formic acid were added, followed by dilution and analysis in the same way as for plasma. Components were separated using a YMC‐Triart C18 (2.0 x 30 mm, 1.9 µm) column (YMC Co. Ltd.). […] Mobile phase A was 0.1% formic acid in H2O while mobile phase B was 0.1% formic acid in ACN:Isopropanol 8:2 v:v.

The nature of data set [5]: Human ADME study: quantitative metabolite profiling in plasma. The data set is classed as in vivo. As for the experimental part: A plasma pool across the six healthy volunteers included in the study was prepared at the time points of 1 hour, 3 hours, 24 hours, and 48 hours post dose. For each time point, an equal volume of plasma was taken from each subject and combined. Plasma pool samples were processed by protein precipitation with acetonitrile. The protein pellet that resulted from precipitation with acetonitrile was washed further with additional aliquots of acetonitrile. All acetonitrile washes were combined and evaporated under nitrogen. For the 3‐ and 24‐hour plasma pools, the extraction procedure was slightly modified, including precipitation of the plasma proteins by addition of a 1:1 mixture of acetonitrile:methanol, followed by washing of the protein pellet with the same solvent mixture. All extracts were reconstituted with a solution of 15‐mM ammonium formate and acetonitrile (95:5 v/v). Extraction and reconstitution recoveries were measured in all four plasma samples in order to calculate and overall recovery. Quantitative metabolite profiling in plasma was accomplished using a Shimadzu Prominence high‐performance liquid chromatography (HPLC) system (Shimadzu, Columbia, MD, USA), coupled with fraction collection and analysis of total radioactivity in individual fractions using AMS (as described above). A second injection of each sample, conducted immediately after the first, was used to provide HPLC fractions for metabolite identification. The fractions identified as containing radioactivity from the AMS analysis were analyzed by HPLC coupled with high‐resolution mass spectrometry to identify the metabolites. The HPLC‐MS/MS methodology used is described below.

The nature of data set [6]: Human ADME study: quantitative metabolite profiling in urine and feces. The data set is classed as in vivo. As to conditions: pooled excreta n=6, from metabolite patterns (radio profiling). As for the experimental part:
Average pools across the six subjects were also created by combining equal percentages (of total urine and feces excreted over the time interval) of the individual subject pools. Urine pools were analyzed directly for metabolite profiling (column recovery of a representative sample was measured), whereas feces pools were subjected to extraction. Specifically, to each aliquot of feces homogenate, two volumes of acetonitrile were added. After centrifugation, the pellet was washed further with an additional two volumes of acetonitrile. […] All washes were combined, evaporated under nitrogen, and reconstituted with a solution of 15‐mM ammonium formate (pH 3.5). This feces extract reconstitute was analyzed for metabolite profiling. Combined extraction and reconstitution (overall recovery) and column recovery were measured. […] The HPLC column used was a Phenomenex Kinetex, C18, 250 × 4.6 mm, equipped with a pre‐column of the same type (2.1 × 4.6 mm), which was placed in a column oven at 40°C. […] The HPLC gradient was as follows: initial conditions were 5% mobile phase B for 1 minute, then increased to 20% at 10 minutes post injection where it was held (isocratic) up to 20 minutes. […] The post column flow was directed to the fraction collector operated in a time‐slice mode and containing 96‐well Lumaplates (Perkin Elmer). The plates were dried at room temperature and the radioactivity was measured using a microplate scintillation counter model TopCount NXT (Perkin Elmer) instrument (up to 3 × 100‐minute counting time). […] Metabolites were identified during the same injections using data generated by the high‐resolution mass spectrometer. The molecular ions and key fragments of each drug‐related component were determined. Key fragments for each metabolite were derived from their product ion mass spectra and were used to determine the metabolite structures. Where possible, structural assignments were supported by exact mass measurement, comparison with synthetic standards and/or Hydrogen/Deuterium (H/D) exchange LC‐MS(/MS).

The nature of data set [7]: Contribution of metabolites to total pharmacological activity in human. The settings on record: considering in vitro measurements and in vivo exposure.
Another data set has as its system CYP1A2. The settings on record: ref literature search, read-out: Reported Ki or IC50 values, median (and range); cited from earlier work.
Another data set relates to CYP3A. The settings on record: cited from earlier work.
The target in a further data set is FMO. Also noted: method as in Zhou et al (2002). As to conditions: ref Zhou et al (2002), read-out: Reported Ki or IC50 values; cited from earlier work.
Substrate in data set [8]: CN(C)C(=O)c1cc2cnc(Nc3ccc(N4CCNCC4)cn3)nc2n1C1CCCC1
Nature of the data set: Enzyme kinetics with recombinant CYP2J2 and scaling to HLM. As to conditions: other: recombinant CYP2J2; 37.0 °C. The data set is classed as in vitro ADME, human. As for the experimental part:
In vitro incubations were carried out in 100‐mM potassium phosphate buffer (pH 7.4) and 5‐mM MgCl2 with a total volume of 200 µL. Substrate and either human liver microsomes (HLM, BD Biosciences, mixed gender pool of n = 50) or recombinant human enzymes (BD Biosciences) were added and pre‐incubated for 3 minutes at 37°C. The reaction was started by addition of a fresh solution of NADPH (1 mmol/L final concentration). The samples were incubated at 37°C with agitation of 500 rpm. For incubations with CYP2A6, CYP2C9, CYP2C18, and CYP4A11, the phosphate buffer was replaced by TRIS buffer (100 mmol/L, pH 7.4) and for flavin‐containing monooxygenases (FMOs), a glycine buffer (50 mM, pH 9.5) was used.
The enzymatic reaction was stopped and the protein was precipitated by addition of an equal volume of methanol. After 30 min at −80°C, the samples were centrifuged at 30'000 x g for 15 min. The supernatant was withdrawn. Aliquots were analyzed by LSC and the supernatant was diluted with water to obtain a final solution containing less than 20% of the organic solvent. For samples of low substrate concentration, supernatants were evaporated to dryness under nitrogen, then re‐suspended in water containing less than 20% of methanol. Samples were analyzed by HPLC combined with radiodetection. […]

As to `Nc1ccc(S(=O)(=O)Nc2ccnn2-c2ccccc2)cc1` [Sulfaphenazole], the IC50 (in general, the concentration needed to halve the response being measured) in data set [1] was > 5000 nM. In addition, the Ki in the data set with CYP2C9 (read-out: Reported Ki or IC50 values, median (and range), ref literature search) was […]; with CYP2C9 (read-out: Reported Ki or IC50 values, ref Food and Drug Administration (2006)) it was […].

As for `C=C[C@H]1C[N@@]2CC[C@H]1C[C@@H]2[C@@H](O)c1ccnc2ccc(OC)cc12` [Quinidine], the Ki in the data set with CYP2D6 is […].

Regarding `CNC(=O)c1cc2cnc(Nc3ccc(N4CCNCC4)cn3)nc2n1C1CCCC1` [M4 (LEQ803)], the “metabolite as % of plasma exposure to ribociclib” value in [2] came to 38%; in data set [3], 3%. Also, in data set [4], the “tlast, median (range)” value is on record as 252 (240‐312) h. Moreover, in data set [4] (read-out: tmax, median (range)), the Tmax (as a rule, the time at which the peak concentration occurs) is 2.5 h. Further, the AUC(0-inf) was 2320 ng·h/mL in [4] (read-out: AUCinf, arithmetic mean (CV %)) and 2390 ng·h/mL in data set [4] (read-out: AUCinf, median). The AUC(0-t) in data set [4] (read-out: AUClast, arithmetic mean (CV %)) amounted to 2160 ng·h/mL; in data set [4] (read-out: AUClast, median), 2240 ng·h/mL. The Cmax (commonly the maximum level reached in the sampled fluid or tissue) in data set [4] (read-out: Cmax, arithmetic mean (CV %)) came out at 67.6 ng/mL; in [4] (read-out: Cmax, median), 59 ng/mL. Further, the half-life in data set [4] (read-out: t½, arithmetic mean (CV %) (converted)) was 91.8 h; in data set [4] (read-out: t½, median (converted)), 78.2 h. The “ratio of AUC0-48 by validated bioanalytical assay to AUC0-48 from metabolite patterns” value in data set [5] (human plasma) is recorded as 0.813. For the same molecule, the “AUC0-48h, % of total [14C]-AUC0-48” value in data set [5] (human plasma pools n=6, from metabolite patterns) was 8.60%. Further, the “metabolite exposure as % of ribociclib exposure” value in [5] (human plasma, AUC0-48) is listed as 19.8%. Moreover, the “Excretion (% of dose), Feces” value is on record as 13.9 % of dose in data set [6] and “approximately 13.9 % of dose” in data set [6] (listed as M4). Besides, the “Excretion (% of dose), Urine” value in data set [6] is listed as 3.74 % of dose; in data set [6] (listed as M4), “approximately 3.74 % of dose”. The “contribution to total pharmacological activity in human” value in data set [7] is “not to have a relevant contribution to total pharmacological activity”.

As for `Cc1nc2c([nH]1)c(=O)n(C)c(=O)n2Cc1ccco1` [Furafylline], in data set [1], the IC50 was > 10000 nM. Besides, in the data set on CYP1A2, the Ki is […].

For the molecule `CC(=O)N1CCN(c2ccc(OCC3COC(Cn4ccnc4)(c4ccc(Cl)cc4Cl)O3)cc2)CC1` (stereo not drawn) [Ketoconazole], in the data set with CYP3A, the Ki is […] and the “Reported Ki or IC50 values” is […].

On to `Cn1cc[nH]c1=S` [Methimazole], for which the Ki at FMO is 61000 nM.

B1: CYP2J2 (Homo sapiens) (protein)
chain: MLAAMGSLAAALWAVVHPRTLLLGTVAFLLAADFLKRRRPKNYPPGPWRLPFLGNFFLVDFEQSHLEVQLFVKKYGNLFSLELGDISAVLITGLPLIKEALIHMDQNFGNRPVTPMREHIFKKNGLIMSSGQAWKEQRRFTLTALRNFGLGKKSLEERIQEEAQHLTEAIKEENGQPFDPHFKINNAVSNIICSITFGERFEYQDSWFQQLLKLLDEVTYLEASKTCQLYNVFPWIMKFLPGPHQTLFSNWKKLKLFVSHMIDKHRKDWNPAETRDFIDAYLKEMSKHTGNPTSSFHEENLICSTLDLFFAGTETTSTTLRWALLYMALYPEIQEKVQAEIDRVIGQGQQPSTAARESMPYTNAVIHEVQRMGNIIPLNVPREVTVDTTLAGYHLPKGTMILTNLTALHRDPTEWATPDTFNPDHFLENGQFKKREAFMPFSIGKRACLGEQLARTELFIFFTSLMQKFTFRPPNNEKLSLKFRMGITISPVSHRLCAVPQV
notes: purchased BD Biosciences
Consider B1, for which the Km (as a rule, the concentration of substrate that gives half-maximal velocity) in data set [8] stood at 11.8 µM.

The values above are taken from publication PMC7287031 (Pharmacology Research & Perspectives, 2020).
